Data reported in publication PMC6874406 (Journal of photochemistry and photobiology. A, Chemistry, 2019).
Read-outs that look alike come from different tables or passages of the source.

Assays:
[1] = target: T1, human serum albumin (HSA) (Homo sapiens, UniProt P02768); assay: fluorescence titration; assay type: binding
[2] = target: T1, human serum albumin (HSA); assay: fluorescence titration; assay type: binding; remark: listed apart in the source

T1 sequence (P02768 25-609): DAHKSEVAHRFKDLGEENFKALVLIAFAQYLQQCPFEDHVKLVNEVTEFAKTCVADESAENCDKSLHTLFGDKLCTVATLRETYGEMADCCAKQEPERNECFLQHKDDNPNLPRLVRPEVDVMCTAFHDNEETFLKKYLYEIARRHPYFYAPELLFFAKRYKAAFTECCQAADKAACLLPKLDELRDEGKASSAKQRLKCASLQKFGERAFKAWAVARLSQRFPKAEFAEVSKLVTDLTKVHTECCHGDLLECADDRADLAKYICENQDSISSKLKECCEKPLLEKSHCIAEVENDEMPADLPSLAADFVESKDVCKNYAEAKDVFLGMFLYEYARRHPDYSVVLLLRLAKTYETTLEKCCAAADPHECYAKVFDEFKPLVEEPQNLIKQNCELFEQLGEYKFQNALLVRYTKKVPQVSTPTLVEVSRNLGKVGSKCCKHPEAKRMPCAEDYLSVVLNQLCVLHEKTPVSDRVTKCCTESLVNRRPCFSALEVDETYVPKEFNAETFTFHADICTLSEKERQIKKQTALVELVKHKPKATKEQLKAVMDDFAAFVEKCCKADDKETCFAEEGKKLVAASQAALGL

Row | Kd [1] | Kd [2] | SMILES
1 | 6.67 µM |  | COc1cc(/C=C/C2=C(C#N)C(=C(C#N)C#N)OC2(C)C)cc(OC)c1O [compound 1, (E)-2-(3-cyano-4-(4-hydroxy-3,5-dimethoxystyryl)-5,5-dimethylfuran-2(5H)-ylidene)malononitrile]
2 |  | 5.26 µM | CC1(C)OC(=C(C#N)C#N)C(C#N)=C1/C=C/c1ccc(O)cc1 [compound 2, fluorophore 2]
